In ChEMBL document CHEMBL1201862, “PubChem BioAssay data set” (2004):
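Step 1: Grow cells in 96-well plates. Step 2: Expose to compound for 48 hours at 5 concentrations. Step 3: Interpolate endpoints linearly; if unreached, use highest concentration. Abbreviation: GI50, concentration required for 50% inhibition of growth.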 Calls of active or inactive are those of the source. No stated cut-off is given here; in the data, active = GI50 up to about 1.1 µM and inactive = higher.

Assays:
Experiment in all cases: inhibition of tumour cell growth, NCI panel, 48 h
MCF7 = test system: MCF7
UACC-62 = test system: UACC-62
LOX IMVI = test system: LOX IMVI
CAKI-1 = test system: CAKI-1
SR = test system: SR
OVCAR-3 = test system: OVCAR-3
786-0 = test system: 786-0
HCT-15 = test system: HCT-15
KM12 = test system: KM12
HCT-116 = test system: HCT-116
SN12C = test system: SN12C
MDA-MB-231 = test system: MDA-MB-231
NCI-H23 = test system: NCI-H23
NCI-H522 = test system: NCI-H522
EKVX = test system: EKVX
SK-OV-3 = test system: SK-OV-3
IGROV-1 = test system: IGROV-1
BT-549 = test system: BT-549
UACC-257 = test system: UACC-257
OVCAR-5 = test system: OVCAR-5

In the case of CCC1OC(=O)CC(O)C(C)C(OC2OC(C)CC(N(C)C)C2O)C(CC=O)CC(C)C(=O)/C=C/C2(C)OC2C1C (stereo not given), the GI50 (MCF7) was 5.47 µM (inactive), the GI50 (UACC-62) was 14.1 µM (inactive) and the GI50 (LOX IMVI) was 17.3 µM (inactive). For the same compound, the GI50 (CAKI-1) was 31.5 µM (inactive), the GI50 (SR) was 13.9 µM (inactive) and the GI50 (OVCAR-3) was 22.8 µM (inactive). For the same compound, the GI50 (786-0) was 17.2 µM (inactive), the GI50 (HCT-15) was 18.3 µM and the GI50 (KM12) was 14.4 µM (inactive). The GI50 (HCT-116) was 15.8 µM (inactive), the GI50 (SN12C) was 18 µM (inactive) and the GI50 (MDA-MB-231) was 28.3 µM (inactive). The GI50 (NCI-H23) was 19 µM (inactive), the GI50 (NCI-H522) was 15 µM (inactive) and the GI50 (EKVX) was 15.6 µM (inactive). For the same compound, the GI50 (SK-OV-3) was 27.2 µM (inactive), the GI50 (IGROV-1) was 10.3 µM (inactive) and the GI50 (BT-549) was 15.1 µM (inactive). For the same compound, the GI50 (UACC-257) was > 100 µM (inactive) and the GI50 (OVCAR-5) was 41.3 µM (inactive).
CC(=O)OC(C)(C)CCC(=O)[C@](C)(O)[C@H]1[C@H](O)C[C@@]2(C)[C@@H]3CCc4c(cc(OC5OC(CO)C(O)C(O)C5O)c(O)c4C)C3(C)C(=O)C[C@]12C (stereo not given in full) was tested, and the GI50 (MCF7) was > 100 µM (inactive), the GI50 (UACC-62) was > 100 µM (inactive) and the GI50 (LOX IMVI) was > 100 µM (inactive). The GI50 (CAKI-1) was > 100 µM (inactive), the GI50 (SR) was > 100 µM (inactive) and the GI50 (OVCAR-3) was > 100 µM (inactive). For the same compound, the GI50 (786-0) was > 100 µM (inactive), the GI50 (HCT-15) was over 100 µM and the GI50 (KM12) was > 100 µM (inactive). For the same compound, the GI50 (HCT-116) was > 100 µM (inactive), the GI50 (SN12C) was > 100 µM (inactive) and the GI50 (MDA-MB-231) was > 100 µM (inactive). For the same compound, the GI50 (NCI-H23) was > 100 µM (inactive), the GI50 (NCI-H522) was > 100 µM (inactive) and the GI50 (EKVX) was > 100 µM (inactive). For the same compound, the GI50 (SK-OV-3) was > 100 µM (inactive), the GI50 (IGROV-1) was > 100 µM (inactive) and the GI50 (BT-549) was > 100 µM (inactive). For the same compound, the GI50 (UACC-257) was > 100 µM (inactive) and the GI50 (OVCAR-5) was > 100 µM (inactive).
C[C@]12CC[C@H]3[C@@H](CC=C4C[C@@H](N5CCCC5)CC[C@@]43C)[C@@H]1C[C@H](N1CCCCC1)[C@@H]2O was tested, and the GI50 (MCF7) was > 100 µM (inactive), the GI50 (UACC-62) was > 100 µM (inactive) and the GI50 (LOX IMVI) was 33.3 µM (inactive). The GI50 (CAKI-1) was > 100 µM (inactive), the GI50 (SR) was 11.4 µM (inactive) and the GI50 (OVCAR-3) was > 100 µM (inactive). The GI50 (786-0) was 91.8 µM (inactive), the GI50 (HCT-15) was 33.8 µM and the GI50 (KM12) was > 100 µM (inactive). For the same compound, the GI50 (HCT-116) was 91.4 µM (inactive), the GI50 (SN12C) was > 100 µM (inactive) and the GI50 (MDA-MB-231) was > 100 µM (inactive). For the same compound, the GI50 (NCI-H23) was > 100 µM (inactive), the GI50 (NCI-H522) was > 100 µM (inactive) and the GI50 (EKVX) was > 100 µM (inactive). For the same compound, the GI50 (SK-OV-3) was > 100 µM (inactive), the GI50 (IGROV-1) was > 100 µM (inactive) and the GI50 (BT-549) was > 100 µM (inactive). The GI50 (UACC-257) was 23.3 µM (inactive) and the GI50 (OVCAR-5) was 99.8 µM (inactive).
